Reference: patent US20190022096A1, “METHODS OF TREATING CANCER” (Corvus Pharmaceuticals, Inc., priority 2017, published 2019)
Values joined by “and” are separate entries in the source; they are usually repeats but may differ in a detail not shown here. Equal values may be shown once. “Also recorded” adds a separate entry of the source.

Key:
A2AR [1] = target: T1, A2AR (Homo sapiens, UniProt P29274); assay: pERK in human CD4+ T cells after TCR cross-linking; details: in the presence of NECA (1 μM)
T1 sequence (P29274 whole entry): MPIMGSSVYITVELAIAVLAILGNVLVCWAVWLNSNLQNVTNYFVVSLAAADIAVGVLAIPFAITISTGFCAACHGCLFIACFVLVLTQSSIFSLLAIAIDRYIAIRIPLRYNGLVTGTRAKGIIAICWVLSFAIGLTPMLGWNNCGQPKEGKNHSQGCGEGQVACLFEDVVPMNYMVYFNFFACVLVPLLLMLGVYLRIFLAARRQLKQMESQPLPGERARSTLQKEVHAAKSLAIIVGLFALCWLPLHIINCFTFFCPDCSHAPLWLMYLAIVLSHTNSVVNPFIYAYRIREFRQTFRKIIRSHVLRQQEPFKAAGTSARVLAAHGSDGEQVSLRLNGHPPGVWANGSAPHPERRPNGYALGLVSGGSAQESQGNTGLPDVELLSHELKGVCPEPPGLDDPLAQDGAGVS

CT26 colon tumors = assay: Syngeneic CT26 mouse colon cancer model; details: CPI-444 100 mg/kg oral Day 0, 12 days, anti-PD-1 100 ug i.p. days 7, 9, 11, 13
From the text: Treatment continued for 12 days.
Treatment continued for 7 days. […] Treatment continued for 7 days.
Treatment continued for 7 days.

[2] = cited from earlier work
A2AR [3] = target: T1, A2AR; assay: cAMP production in NECA-stimulated primary human T cells (LANCE Ultra cAMP); format: cell-based; parameters: endogenous in cells; host or cells: primary human T cells / human PBMCs
Experimental: Adenosine signaling through A2AR leads to increases in the levels of cAMP.
T cells were isolated from human PBMC by negative selection and activated via CD3/CD28 stimulation for 48 hours to induce A2AR expression. Stimulated T cells were then “rested” for 24 hours by removal of CD3/CD28 stimulation in order to minimize background levels of cAMP.

MC38 colon tumors = assay: Syngeneic MC38 mouse colon carcinoma model
[4] = Plasma levels of CPI-444 in patients; format: in vivo, human; details: Day 14
A2AR [5] = target: T1, A2AR; assay: IL-2 and IFNγ secretion from activated primary human PBMCs (AlphaLISA); format: cell-based; parameters: endogenous in cells; host or cells: primary human T cells / human PBMCs; details: CPI-444 1 μM; NECA or CGS21680 1 μM; anti-CD3/anti-CD28 48 hours
Experimental: Purified anti-CD3 and anti-CD28 monoclonal antibodies (1 ug/ml) were then added to activate T cells for 48 hours.
Purified anti-CD3 and anti-CD28 monoclonal antibodies (1 ug/ml) were then added to activate T cells for 48 hours. In this study, AlphaLISA assays (PerkinElmer) analyzed on an EnVision MultiLabel Reader were used to measure cytokine release according to the manufacturer's instructions.

[6] = test system: NECA-induced pCREB in CD4+ T cells; assay: NECA-induced pCREB in CD4+ T cells of whole blood of treated patients (flow cytometry)
Experimental: (§1) On day 14, blood was collected prior to dosing (0 hr, trough) and for a time course post-dose (1.5, 3, 5.5, 8 hr) (FIGS. 26-28). The level of signaling was determined and the percent inhibition on Day 14 compared to Day 1 pre-treatment was calculated.

A2AR [7] = target: T1, A2AR; assay: pCREB in fresh PBMCs (B cell population) stimulated with NECA; details: primarily B cells
From the text: Adenosine signaling via A2AR leads to an increase in intracellular cAMP and subsequent phosphorylation of CREB.

EL4 lymphoma = assay: Syngeneic EL4 mouse lymphoma model; format: in vivo; details: CPI-444 10, 30, 100 mg/kg daily oral
Experimental: Syngeneic C57BL/6 female mice (8-10 weeks old) were injected (via subcutaneous route) with EL4 cells.

solid tumor patients = assay: Phase 1/1b clinical trial in solid tumor patients; format: in vivo, human
Experimental: After a dose selection stage, pts are treated in 10 disease specific cohorts (5 single agent and 5 combination). Cohorts may be expanded based on response criteria: complete response, partial response or stable disease (SD). Biomarkers are evaluated including immune cells by flow cytometry in peripheral blood and pre/post treatment tumor biopsies as well as adenosine pathway modulation by immunohistochemistry and gene expression.
In step 1 of the trial, patients were dosed with either 100 mg BID for 14 days out of a 28 day cycle, 100 mg BID for 28 days, 200 mg QD for 14 days or 50 mg or 100 mg BID for 14 days in combination with […]® (840 mg Q2W). Pharmacodynamic analysis was conducted on peripheral blood cells to inform dose selection. Step 1 of Phase1/1b was fully enrolled (n=48) and dose was selected (100 mg BID) based on pharmacodynamic analysis of A2AR pathway.

[8] = test system: NECA-induced pCREB in B cells; assay: NECA-induced pCREB in B cells of whole blood of treated patients (flow cytometry)
Experimental: as §1

Renca = details: CPI-444 10 mg/kg from Day 16, 14 days; 50 mg/kg Cyclophosphamide on first day

SMILES: Cc1ccc(-c2nc(N)nc3c2nnn3Cc2cccc(COC3CCOC3)n2)o1 (centres unmarked) [CPI-444]
- ERK signaling / pERK levels in CD4+ T cells (A2AR [1]): restored pERK levels in a dose-dependent manner
- tumor growth, single agents (CT26 colon tumors): inhibition of tumor growth; also recorded: inhibits the growth; also recorded: non-significant reductions in tumor growth
- adverse events ([2]; 75 subjects previously dosed): no significant adverse events
- tolerability ([2]; non-oncology indications): well tolerated
- cAMP production upon NECA stimulation, dependence on CPI-444 dose (A2AR [3]; FIG. 6): dose-dependent manner
- production of cAMP upon NECA treatment (A2AR [3]; all levels of NECA tested (10^-5 to 10^-9 M), 10 minutes): completely blocked
- mice in which rechallenge tumors were fully rejected (MC38 colon tumors; 9 mice rechallenged, over 15 days after first 5 days): 9 mice
- tumor growth (MC38 colon tumors; CPI-444 1 mg/kg daily oral gavage 28 days, from one day after engraftment): did not inhibit tumor growth
- tumor growth (MC38 colon tumors; CPI-444 10 mg/kg daily oral, 10 mg/kg): significantly inhibits; also recorded: significant inhibition of tumor growth
- tumor growth (MC38 colon tumors; CPI-444 100 mg/kg daily oral, 100 mg/kg): significantly inhibits; also recorded: significant inhibition of tumor growth
- eliminates tumors (MC38 colon tumors; CPI-444 100 mg/kg from Day 9, 14 days, anti-CTLA-4 9H10 100 ug days 9, 12, 15, 18): 20 % of mice
- tumor growth, single agents (MC38 colon tumors; CPI-444 100 mg/kg from Day 9, anti-CTLA-4 100 ug): moderate tumor growth inhibition
- tumor growth, single agents (MC38 colon tumors; CPI-444 100 mg/kg oral Day 0, 12 days, anti-PD-L1 200 ug i.p. days 7, 10, 13, 16): inhibition of tumor growth
- eliminated tumors (MC38 colon tumors; CPI-444 dose response study): 30 % of mice
- tumor growth on re-challenge of cured mice (MC38 colon tumors; MC38 re-challenge): fully inhibited
- signs of reoccurrence (MC38 colon tumors; additional 6 weeks after end of study): No tumor growth was observed
- complete tumor regression (MC38 colon tumors; all cohorts (1, 10, 100 mg/kg)): observed in a subset of mice
- inhibition of tumor growth, dose response (MC38 colon tumors; daily CPI-444 1, 10, 100 mg/kg): dose-dependent inhibition
- tumor elimination (MC38 colon tumors; daily CPI-444 1, 10, 100 mg/kg): 9/30
- protected from rechallenge (MC38 colon tumors; mice with complete tumor growth inhibition, new MC38 engraftment, no additional treatment): 100%
- levels of immune checkpoints GITR, OX40, LAG3 on tumor infiltrating lymphocytes and circulating T cells (MC38 colon tumors; mouse, in vivo): modulated
- CD73 expression in tumors (IHC, frequency x intensity) (MC38 colon tumors; relative to control): significantly higher
- time of peak plasma drug levels [4]: 3 h
- IFNγ secretion in presence of A2AR agonist (A2AR [5]): restored
- IL-2 secretion in presence of A2AR agonist (A2AR [5]): restored
- CPI-444 plasma level above which pCREB inhibition is near complete [6]: greater than 2,000 ng/mL
- NECA-induced CREB phosphorylation (A2AR [7]): completely inhibited
- response of established primary tumors (EL4 lymphoma): minimal therapeutic response
- tumor growth in regional lymph nodes (number and size of enlarged nodes) (EL4 lymphoma): significant dose-dependent inhibition; also recorded: significant, dose-dependent decrease
- Grade 3 or 4 treatment related adverse events (solid tumor patients; 7 pts treated to date): no Grade 3 or 4 treatment related adverse events
- TCR clonality following treatment (solid tumor patients; Nivolumab-refractory lung cancer patient, FIG. 21C): increased clonality
- tumor response (solid tumor patients; Nivolumab-refractory lung cancer patient, single agent 100 mg po BID x 28 days/cycle): Tumor regression
- PD-1+/CD8+ (activated CD8) and memory cell frequencies in blood (solid tumor patients; single agent and combination cohorts): Increases
- TCR repertoire in peripheral blood (solid tumor patients; single agent, some patients): robust changes; also recorded: induced
- tolerability (solid tumor patients; solid tumor patients): well tolerated
- increases in PD-1+CD8+ cells in peripheral blood compared to baseline (solid tumor patients; the two pts with SD): 1.7 fold and 2.4 fold
- inhibition of pCREB ([8]; 50 mg BID cohort): not high enough for sustained inhibition; also recorded: Variable inhibition
- inhibition of pCREB ([8]; 100 mg BID cohort): highest pCREB inhibition at trough and near complete inhibition after taking their morning dose; also recorded: high pCREB inhibition at trough and near complete inhibition after taking their morning dose
- patients with complete and sustained inhibition of NECA-induced pCREB ([8]; 100 mg BID single agent, Day 14): 7 of 7
- inhibition of pCREB ([8]; 200 mg QD cohort): achieves high peak levels but is not maintained at trough; also recorded: Variable inhibition
- pCREB induction by NECA ([8]; following 14 days of treatment): attenuated
- inhibition of NECA induced increase of pCREB ([8]; one subject, 200QD for 14 days, 1 μM NECA): partial inhibition

SMILES: O=P1(N(CCCl)CCCl)NCCCO1 (centres unmarked) [Cyclophosphamide]
- tumor growth / response rate (Renca): slight tumor growth inhibition

SMILES: COc1cccc2c1C(=O)c1c(O)c3c(c(O)c1C2=O)C[C@@](O)(C(=O)CO)C[C@@H]3O[C@H]1C[C@H](N)[C@H](O)[C@H](C)O1 [Doxorubicin, reference compound]
- tumor growth (MC38 colon tumors; CPI-444 100 mg/kg from Day 11, 14 days, 4 mg/kg Doxorubicin on first day): slight tumor growth inhibition
